# Experimental data as given in patent US6653504B1, “Non-hygroscopic salts of active ingredients having therapeutical and/or nutritional activities and orally administrable compositions containing same” (Sigma-Tau Industrie Farmaceutiche Riunite S.p.A., priority 1999, dated 2003).
# Structures can show the parent of a compound that is named as a salt.
# Tests used:
# [1] = Hygroscopicity: increase in weight and appearance after exposure to humidity; format: physicochemical; settings: exposure to 70±5% relative humidity, at 25° C. for 24 hours
# [2] = background statement, no conditions given; cited from earlier work
Molecule,Appearance [1],Increase in weight (%) [1] [%],Hygroscopicity of known salts [2]
CC(=O)O[C@H](CC(=O)O)C[N+](C)(C)C.[Cl-] [Acetyl-L-carnitine chloride],clumped mass,8,–
CC(=O)O[C@H](CC(=O)O)C[N+](C)(C)C.O=C([O-])/C=C/C(=O)O [acetyl L(−)-carnitine acid fumarate],–,–,strongly hygroscopic
L(−)-carnitine acid fumarate,–,–,non-hygroscopic
CC(=O)O[C@H](CC(=O)[O-])C[N+](C)(C)C [Acetyl-L-carnitine inner salt],deliquescent,19,–
C[N+](C)(C)C[C@H](O)CC(=O)O.C[N+](C)(C)C[C@H](O)CC(=O)O.O=C([O-])C(O)C(O)C(=O)[O-] [L(−)-carnitine tartrate],–,–,non-hygroscopic
C[N+](C)(C)C[C@H](O)CC(=O)[O-] [L-carnitine inner salt],deliquescent,23,–
